# Test results published in paper PMC11369193, “Structural insights into human ABCD3-mediated peroxisomal acyl-CoA translocation” (Cell Discovery, 2024).
# B1: hABCD3 (Homo sapiens) (protein)
# chain: MAAFSKYLTARNSSLAGAAFLLLCLLHKRRRALGLHGKKSGKPPLQNNEKEGKKERAVVDKVFFSRLIQILKIMVPRTFCKETGYLVLIAVMLVSRTYCDVWMIQNGTLIESGIIGRSRKDFKRYLLNFIAAMPLISLVNNFLKYGLNELKLCFRVRLTKYLYEEYLQAFTYYKMGNLDNRIANPDQLLTQDVEKFCNSVVDLYSNLSKPFLDIVLYIFKLTSAIGAQGPASMMAYLVVSGLFLTRLRRPIGKMTITEQKYEGEYRYVNSRLITNSEEIAFYNGNKREKQTVHSVFRKLVEHLHNFILFRFSMGFIDSIIAKYLATVVGYLVVSRPFLDLSHPRHLKSTHSELLEDYYQSGRMLLRMSQALGRIVLAGREMTRLAGFTARITELMQVLKDLNHGKYERTMVSQQEKGIEGVQVIPLIPGAGEIIIADNIIKFDHVPLATPNGDVLIRDLNFEVRSGANVLICGPNGCGKSSLFRVLGELWPLFGGRLTKPERGKLFYVPQRPYMTLGTLRDQVIYPDGREDQKRKGISDLVLKEYLDNVQLGHILEREGGWDSVQDWMDVLSGGEKQRMAMARLFYHKPQFAILDECTSAVSVDVEGYIYSHCRKVGITLFTVSHRKSLWKHHEYYLHMDGRGNYEFKQITEDTVEFGS
# notes: full-length (659 residues), codon-optimized, N-terminal FLAG tag, expressed in HEK293F; LMNG + CHS detergent
# What was measured:
# chABCD3 [1] = test system: T1, chABCD3; assay: ATPase activity, malachite green phosphate assay; cryo-EM structure […] Å (GDN); assay type: biochemical, Homo sapiens; details: LMNG + CHS detergent; 20 mM Tris-HCl pH 7.5, 2 mM MgCl2, 37 °C; no acyl-CoA (basal); structure with 10 mM ATP/Mg2+
# T1 construct: gene ABCD3; C. elegans PMP2 residues 1-50 fused to human ABCD3 residues 51-659, N-terminal FLAG tag, HEK293F, homodimer; PMP2 segment invisible in structures; with Peroxisomal Membrane Protein related (Caenorhabditis elegans)
# chABCD3 [2] = test system: T1, chABCD3; assay: ATPase activity, malachite green phosphate assay; assay type: biochemical, Homo sapiens; details: LMNG + CHS detergent; 20 mM Tris-HCl pH 7.5, 2 mM MgCl2, 37 °C; no acyl-CoA (basal)
# chABCD3 [3] = target: T1, chABCD3; assay: stimulation of ATPase activity, malachite green phosphate assay; cryo-EM structure […] Å (digitonin); assay type: biochemical, Homo sapiens; details: 2 mM ATP; LMNG + CHS; 20 mM Tris-HCl pH 7.5, 2 mM MgCl2, 37 °C; activation of ATPase; two sites per dimer
# [4] = target: chimeric ABCD3 (chABCD3): N-terminal 50 residues of C. elegans PMP2 fused to the core domains of human ABCD3, wild type (Caenorhabditis elegans | human) (UniProt P28288); assay: cryo-EM structure; purified chABCD3 (~10 mg/mL) in digitonin with 0.5 mM phytanoyl-CoA; C2 symmetry; inward-facing conformation; 2.9 Å
# [5] = substrate: Nc1ncnc2c1ncn2[C@@H]1O[C@H](COP(=O)(O)OP(=O)(O)OP(=O)(O)O)[C@@H](O)[C@H]1O; assay: ATPase activity, malachite green phosphate assay; assay type: biochemical, Homo sapiens; details: LMNG + CHS detergent, 20 mM Tris-HCl pH 7.5, 2 mM MgCl2, 37 °C, no acyl-CoA (basal)
molecule,measurement,setting,value
Nc1ncnc2c1ncn2[C@@H]1O[C@H](COP(=O)(O)OP(=O)(O)OP(=O)(O)O)[C@@H](O)[C@H]1O [ATP],Km,chABCD3 [1],190 µM
same,Km,chABCD3 [2],160 µM
CC(C)CCCC(C)CCCC(C)CCCC(C)CC(=O)SCCNC(=O)CCNC(=O)[C@H](O)C(C)(C)COP(=O)(O)OP(=O)(O)OC[C@H]1O[C@@H](n2cnc3c(N)ncnc32)[C@H](O)[C@@H]1OP(=O)(O)O (some centres unmarked) [phytanoyl-CoA],EC50,chABCD3 [3],~460 nM
"chimeric ABCD3 (chABCD3): N-terminal 50 residues of C. elegans PMP2 fused to the core domains of human ABCD3, wild type (from UniProt P28288 51-659)",stoichiometry N,[4],2
B1,Km,[5],240 µM
